Experimental data reported in patent US12180192B2, “Modulators of THR-β and methods of use thereof” (ALIGOS THERAPEUTICS, INC., priority 2019, dated 2024).

Experiments:
[1] = target: T1, human thyroid receptor alpha ligand-binding domain (LBD) (Homo sapiens, UniProt P10827); test: TR-FRET thyroid receptor alpha coactivator assay (THR biochemical assay, Assay 1); details: for EC50: Table 4, THR-alpha, read-out: Activity category Assay 1 (EC50, THR-alpha agonist activity); for Emax: Table 5, THRα, read-out: Activity category Assay 1 THRα (Emax)
T1 construct: purchased Invitrogen
Outline: (§1)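 Agonist-driven coactivator recruitment measured by TR-FRET: terbium anti-GST antibody (2 nM) bound to GST-LBD of TRβ or TRα (1 nM final, stated for β), with fluorescein SRC2-2 peptide at 200 nM. Compounds at 1% DMSO. Read after 1 h, room temperature, protected from light.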

[2] = target: T2, human thyroid receptor beta ligand-binding domain (LBD) (Homo sapiens, UniProt P10828); test: TR-FRET thyroid receptor beta coactivator assay (THR biochemical assay, Assay 1); details: for EC50: THR-beta, TR-FRET coactivator assay, read-out: Activity category Assay 1 (EC50, THR-beta agonist); for Emax: Table 5, Assay 1, THRβ, read-out: Activity category Assay 1 THRβ (Emax)
T2 construct: purchased Invitrogen
T2 sequence (P10828 217-461 limits assumed): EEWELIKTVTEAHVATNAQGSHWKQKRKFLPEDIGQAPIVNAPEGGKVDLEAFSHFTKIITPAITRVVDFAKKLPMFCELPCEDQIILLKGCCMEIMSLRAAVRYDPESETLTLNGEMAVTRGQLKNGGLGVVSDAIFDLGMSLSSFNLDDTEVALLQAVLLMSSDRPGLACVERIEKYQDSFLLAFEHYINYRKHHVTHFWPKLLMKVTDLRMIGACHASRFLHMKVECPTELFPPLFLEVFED
Outline: as §1

[3] = target: T3, THR alpha (Homo sapiens, UniProt P10827); test: HEK293T THR alpha/RXR luciferase reporter assay (Assay 2); assay type: cell-based; details: Assay 2; for Emax: HEK-293T, Table 5, THRα, read-out: Activity category Assay 2 THRα (Emax); for EC50: Table 4, THR-alpha, read-out: Activity category Assay 2 (EC50, THR-alpha agonist activity)
T3 construct: expressed in transfected cells; host or cells: HEK293T (ATCC CRL-3216)
T3 sequence (P10827 1-410 isoform P10827-2): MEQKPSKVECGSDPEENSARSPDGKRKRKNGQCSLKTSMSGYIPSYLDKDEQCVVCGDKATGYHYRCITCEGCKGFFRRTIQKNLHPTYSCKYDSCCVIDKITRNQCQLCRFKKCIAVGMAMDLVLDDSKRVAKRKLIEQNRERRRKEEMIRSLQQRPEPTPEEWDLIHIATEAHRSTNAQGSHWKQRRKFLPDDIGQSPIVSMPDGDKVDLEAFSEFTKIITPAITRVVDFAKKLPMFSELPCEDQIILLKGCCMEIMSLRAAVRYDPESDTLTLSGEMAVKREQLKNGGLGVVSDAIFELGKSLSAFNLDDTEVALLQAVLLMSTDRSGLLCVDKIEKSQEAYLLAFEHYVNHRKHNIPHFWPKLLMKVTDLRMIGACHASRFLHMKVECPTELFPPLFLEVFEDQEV
T3 sequence (P19793 1-462 partner): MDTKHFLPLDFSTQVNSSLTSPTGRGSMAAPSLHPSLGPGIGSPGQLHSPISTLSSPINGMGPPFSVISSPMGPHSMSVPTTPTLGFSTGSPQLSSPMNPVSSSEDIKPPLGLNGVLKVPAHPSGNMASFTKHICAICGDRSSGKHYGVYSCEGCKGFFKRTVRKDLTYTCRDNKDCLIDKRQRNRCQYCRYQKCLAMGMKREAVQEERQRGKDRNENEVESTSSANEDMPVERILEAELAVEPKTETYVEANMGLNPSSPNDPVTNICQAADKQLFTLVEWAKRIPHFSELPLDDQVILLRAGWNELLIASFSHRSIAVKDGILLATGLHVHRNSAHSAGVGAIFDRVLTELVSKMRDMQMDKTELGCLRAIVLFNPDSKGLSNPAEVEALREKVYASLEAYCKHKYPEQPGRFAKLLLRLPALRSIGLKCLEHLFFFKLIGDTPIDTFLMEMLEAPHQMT
Outline: (§2)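 Compounds tested as ten-point five-fold dilution series for 18-24 h on transiently transfected HEK293T cells carrying TRE-driven luciferase plus RXR and either THR alpha or beta expression plasmids. Read-out by One-Glo luminescence, expressed as percent agonism relative to negative and positive controls.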

[4] = target: T4, THR beta (Homo sapiens, UniProt P10828); test: HEK293T THR beta/RXR luciferase reporter assay (Assay 2); assay type: cell-based; details: for Emax: HEK-293T, Table 5, Assay 2, THRβ, read-out: Activity category Assay 2 THRβ (Emax); for EC50: THR-beta, HEK293T reporter assay, read-out: Activity category Assay 2 (EC50, THR-beta agonist)
T4 construct: expressed in transfected cells; host or cells: HEK293T (ATCC CRL-3216)
T4 sequence (P10828 1-461): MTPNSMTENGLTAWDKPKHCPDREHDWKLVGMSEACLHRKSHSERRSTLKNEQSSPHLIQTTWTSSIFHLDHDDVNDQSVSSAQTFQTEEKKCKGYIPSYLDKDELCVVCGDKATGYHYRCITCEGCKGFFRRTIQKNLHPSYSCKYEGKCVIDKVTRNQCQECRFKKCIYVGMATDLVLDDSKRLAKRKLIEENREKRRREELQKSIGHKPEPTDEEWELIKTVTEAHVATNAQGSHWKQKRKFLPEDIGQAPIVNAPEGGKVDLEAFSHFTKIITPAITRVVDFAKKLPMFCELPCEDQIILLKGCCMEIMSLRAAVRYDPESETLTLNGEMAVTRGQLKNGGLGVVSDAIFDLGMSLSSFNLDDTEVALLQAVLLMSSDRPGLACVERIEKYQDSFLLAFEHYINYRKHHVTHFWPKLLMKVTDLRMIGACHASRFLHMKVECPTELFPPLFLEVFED
T4 sequence (P19793 1-462 partner): T3 sequence (P19793 1-462 partner)
Outline: as §2

Row | SMILES | EC50 [1] [nM] | Emax [1] [%] | EC50 [2] [nM] | Emax [2] [%] | Emax [3] [%] | EC50 [3] [nM] | Emax [4] [%] | EC50 [4] [nM]
1 | CO[C@H]1C[C@H](c2cc(Oc3c(Cl)cc(-n4nc(N)c(=O)[nH]c4=O)cc3Cl)n[nH]c2=O)C1 [Compound 102] | 1000 to 25000 | < 50 | 1000 to 25000 | < 50 | < 50 | > 10000 | < 50 | 1000 to 10000
2 | Cc1cc(-n2nc(C#N)c(=O)[nH]c2=O)cc(C)c1Cc1cnc2[nH]cc(C(C)C)c2n1 [Compound 66, 2-[4-[(7-isopropyl-5H-pyrrolo[2,3-b]pyrazin-2-yl)methyl]-3,5-dimethyl-phenyl]-3,5-dioxo-1,2,4-triazine-6-carbonitrile] | 250 to 1000 | < 50 | 50 to 250 | 50 to 75 | 50 to 75 | 1000 to 10000 | > 75 | 1000 to 10000
3 | Nc1nn(-c2cc(Cl)c(Oc3cc(Cc4ccc(O)cn4)c(=O)[nH]n3)c(Cl)c2)c(=O)[nH]c1=O [Compound 161, 6-amino-2-[3,5-dichloro-4-([5-[(5-hydroxypyridin-2-yl)methyl]-6-oxo-1H-pyridazin-3-yl]oxy)phenyl]-4H-1,2,4-triazine-3,5-dione] | 250 to 1000 | < 50 | 250 to 1000 | < 50 | < 50 | > 10000 | < 50 | 1000 to 10000
4 | Nc1nn(-c2cc(Cl)c(Oc3cc(C(O)C4CCCC4)c(=O)[nH]n3)c(Cl)c2)c(=O)[nH]c1=O (stereo not drawn) [Compound 77, 6-amino-2-[3,5-dichloro-4-([5-[cyclopentyl(hydroxy)methyl]-6-oxo-1H-pyridazin-3-yl]oxy)phenyl]-4H-1,2,4-triazine-3,5-dione] | 250 to 1000 | 50 to 75 | 50 to 250 | < 50 | > 75 | 250 to 1000 | > 75 | 50 to 250
5 | CC(C)(O)c1cc(Oc2c(Cl)cc(-n3nc(N)c(=O)[nH]c3=O)cc2Cl)n[nH]c1=O [Compound 60, 6-amino-2-(3,5-dichloro-4-[[5-(2-hydroxypropan-2-yl)-6-oxo-1H-pyridazin-3-yl]oxy]phenyl)-4H-1,2,4-triazine-3,5-dione] | 1000 to 25000 | < 50 | 250 to 1000 | < 50 | > 75 | 1000 to 10000 | > 75 | 1000 to 10000
6 | Cc1cc(-n2nc(C#N)c(=O)[nH]c2=O)cc(C)c1Oc1ccc2[nH]cc(C(C)C)c2c1 [Compound 2, 2-[4-[(3-isopropyl-1H-indol-5-yl)oxy]-3,5-dimethyl-phenyl]-3,5-dioxo-4H-1,2,4-triazine-6-carbonitrile] | < 50 | < 50 | < 50 | > 75 | > 75 | 250 to 1000 | > 75 | 50 to 250
7 | C=C(C)c1cc(Oc2c(Cl)cc(-n3nc(N)c(=O)[nH]c3=O)cc2Cl)n[nH]c1=O [Compound 60-A, 6-amino-2-(3,5-dichloro-4-[[6-oxo-5-(prop-1-en-2-yl)-1H-pyridazin-3-yl]oxy]phenyl)-4H-1,2,4-triazine-3,5-dione] | 50 to 250 | < 50 | < 50 | < 50 | < 50 | 250 to 1000 | 50 to 75 | 250 to 1000
8 | Nc1nn(-c2cc(Cl)c(Oc3ccc4c(c3)C3(CC3)C(=O)N4)c(Cl)c2)c(=O)[nH]c1=O [Compound 143] | < 50 | > 75 | < 50 | 50 to 75 | > 75 | < 50 | > 75 | < 50
9 | Nc1nn(-c2cc(Cl)c(Oc3cc(C4CCc5ccccc54)c(=O)[nH]n3)c(Cl)c2)c(=O)[nH]c1=O (stereo not drawn) [Compound 156, 6-amino-2-(3,5-dichloro-4-[[5-(2,3-dihydro-1H-inden-1-yl)-6-oxo-1H-pyridazin-3-yl]oxy]phenyl)-4H-1,2,4-triazine-3,5-dione] | 50 to 250 | < 50 | < 50 | < 50 | < 50 | 1000 to 10000 | 50 to 75 | 50 to 250
